The subject of one data set is caspase 3/7. Nature of the data set: Evaluation of caspase activity (Caspase-Glo 3/7 Assay Kit). It is filed as cell-based. The note with it: MDA-MB-231 cells, 12 hours, compared to untreated MDA-MB-231 cells; 0.5, 1, 5 μM tested. How it is done:
(§1) MDA-MB-231 breast cancer cells (ATCC #HTB-26) were plated in 96-well plates at a density of 1.0 1.5×10^4 cells/well. […] Then, media were removed and the cells were washed two times with PBS at 4° C. The cells were treated with a solution of the analysis samples and media (1:1) in an amount of 140 μL/well using Caspase-GloTM 9 Assay Kit (Cat#. […]; Promega, USA) and Caspase-GloTM 3/7 Assay Kit (Cat#. […]; Promega, USA). After the cells were incubated at 37° C. for 2 hours, luminescence was measured using InfiniteTM M1000 multi reader (Tecan). […] The values were represented as “***” for six fold or more, “**” for 4 fold to below 6 fold, and “*” for 1 fold to below 4 fold, as compared to that of untreated, normal MDA-MB-231 breast cancer cell lines.

The next data set relates to caspase 9. Briefly: Evaluation of caspase activity (Caspase-Glo 9 Assay Kit). It is filed as cell-based. Particulars: MDA-MB-231 cells, 16 hours, compared to untreated MDA-MB-231 cells; 0.5, 1, 5 μM tested. Here is the method: as §1
In data set [1] the test system is MDA-MB-231 breast cancer cell lines. Nature of the data set: Evaluation of inhibition on cell growth (MTS). Format: cell-based. A digest of the protocol:
(§2)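 Cells seeded at 3,000˜5,000 cells/100 μL, grown 24 h at 37° C (MDA-MB-231 under atmospheric conditions), then exposed to 10 μM˜0.1 nM compound. MDA-MB-231 cultured 120 h, read by MTS at 490 nm; fibroblasts cultured 72 h, TCA-fixed, SRB-stained, read at 540 nm. GI50 from growth relative to untreated and medium-only cells.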

The nature of data set [2]: Toxicity to normal cells (SRB). Format: cell-based, mouse. The note with it: mouse, Balb/c3t3 fibroblasts (normal cell line), read-out: BalB/C (GI50). A digest of the protocol: as §2
The nature of data set [3]: Toxicity to normal cells (SRB). Format: cell-based, human. Particulars: human, Hs27 fibroblasts (normal cell line). The method in brief: as §2
In a further data set the test system is Balb/c3t3 fibroblasts. Briefly: Toxicity to normal cells (SRB). It is filed as cell-based, mouse. The note with it: normal cell line, 72 hours, read-out: BalB/C (GI50). The method in brief:
as §2

In another data set the test system is Hs27 fibroblasts. Nature of the data set: Toxicity to normal cells (SRB). It is filed as cell-based, human. The note with it: normal cell line, 72 hours. The method in brief:
as §2

Where [4] appears, read: Homo sapiens, MDA-MB-231, 120 hours.

Where two headings read alike, the source gives them in different places.

For `CN[C@@H](C)C(=O)N[C@H](C(=O)N1CCC[C@H]1C(=O)Nc1cc2c(Nc3ccc(F)c(Cl)c3F)ncnc2cc1OC)C(C)(C)C.Cl` [Example 1, (S)—N-(4-(3-chloro-2,4-difluorophenylamino)-7-methoxyquinazolin-6-yl)-1-((S)-3,3-dimethyl-2-((S)-2-(methylamino)propanamido)butanoyl)pyrrolidine-2-carboxamide hydrochloride], the Caspase-3 result in the data set on caspase 3/7 is on record as “*** (six fold or more)”. In the data set with caspase 9, the Caspase-9 result was “*** (six fold or more)”. In data set [1] (setting [4]), this molecule registered a GI50 of at most 100 nM. Moreover, the GI50 at 72 h in data set [2] and in data set [3] was over 10 µM each time.

Consider `CN[C@@H](C)C(=O)N[C@H](C(=O)N1CCC[C@H]1C(=O)Nc1cc2c(Nc3cccc(Cl)c3F)ncnc2cc1OCCOC)C(C)(C)C.Cl` [Example 2, (S)—N-(4-(3-chloro-2-fluorophenylamino)-7-(2-methoxyethoxy)quinazolin-6-yl)-1-((S)-3,3-dimethyl-2-((S)-2-(methylamino)propanamido)butanoyl)pyrrolidine-2-carboxamide hydrochloride], for which, in the data set on caspase 3/7, the Caspase-3 entry is on record as “** (4 fold to below 6 fold)”. Further, the Caspase-9 entry in the data set on caspase 9 was “* (1 fold to below 4 fold)”. In addition, the GI50 in data set [1] (setting [4]) was 100 to 1000 nM. For the same molecule, the GI50 at 72 h in data set [2] and in data set [3] was over 10 µM each time.

Take `CN[C@@H](C)C(=O)N[C@H](C(=O)N1CCC[C@H]1C(=O)Nc1cc2c(Nc3cccc(Cl)c3F)ncnc2cc1OC)C(C)(C)C.Cl` [Example 7]: in the data set with caspase 3/7, the Caspase-3 result is “*** (six fold or more)”. In addition, the Caspase-9 entry in the data set on caspase 9 was “*** (six fold or more)”.

In the case of `CN[C@@H](C)C(=O)N[C@H](C(=O)N1CCC[C@H]1C(=O)Nc1cc2c(Nc3ccc(Cl)c(Cl)c3F)ncnc2cc1OC)C(C)(C)C.Cl` [Example 8, (S)—N-(4-(3,4-dichloro-2-fluorophenylamino)-7-methoxyquinazolin-6-yl)-1-((S)-3,3-dimethyl-2-((S)-2-(methylamino)propanamido)butanoyl)pyrrolidine-2-carboxamide hydrochloride], the Caspase-3 result in the data set on caspase 3/7 is given as “*** (six fold or more)”. In addition, the Caspase-9 result with caspase 9 was “*** (six fold or more)”. In data set [1] (setting [4]), this molecule showed a GI50 of at most 100 nM. The GI50 at 72 h in data set [2] and in data set [3] was over 10 µM throughout.

Turning to `CN[C@@H](C)C(=O)N[C@H](C(=O)N1CCC[C@H]1C(=O)Nc1cc2c(Nc3ccc(Br)cc3F)ncnc2cc1OC)C(C)(C)C.Cl` [Example 9, (S)—N-(4-(4-bromo-2-fluorophenylamino)-7-methoxyquinazolin-6-yl)-1-((S)-3,3-dimethyl-2-((S)-2-(methylamino)propanamido)butanoyl)pyrrolidine-2-carboxamide hydrochloride], the Caspase-3 result in the data set on caspase 3/7 is “*** (six fold or more)”. For the same molecule, the Caspase-9 entry with caspase 9 is reported as “*** (six fold or more)”. The same molecule came in with a GI50 in data set [1] (setting [4]) of at most 100 nM. Further, the GI50 at 72 h in data set [2] and in data set [3] was over 10 µM in each case.

On to `CN[C@@H](C)C(=O)N[C@H](C(=O)N1CCC[C@H]1C(=O)Nc1cc2c(Nc3ccccc3F)ncnc2cc1OC)C(C)(C)C.Cl` [Example 10, (S)-1-((S)-3,3-dimethyl-2-((S)-2-(methylamino)propanamido)butanoyl)-N-(4-(2-fluorophenylamino)-7-methoxyquinazolin-6-yl)pyrrolidine-2-carboxamide hydrochloride], for which the Caspase-3 entry in the data set on caspase 3/7 was “*** (six fold or more)”. Besides, in the data set with caspase 9, the Caspase-9 result was “*** (six fold or more)”. The GI50 in data set [1] (setting [4]) is at most 100 nM. In addition, the GI50 at 72 h in data set [2] and in data set [3] was over 10 µM throughout.

As for `CN[C@@H](C)C(=O)N[C@H](C(=O)N1CCC[C@H]1C(=O)Nc1cc2c(Nc3ccccc3)ncnc2cc1OC)C(C)(C)C.Cl` [Example 11, (S)—N-(4-phenylamino-7-methoxyquinazolin-6-yl)-1-((S)-3,3-dimethyl-2-((S)-2-(methylamino)propanamido)butanoyl)pyrrolidine-2-carboxamide hydrochloride], in the data set on caspase 3/7, the Caspase-3 entry is “*** (six fold or more)”. In the data set on caspase 9, the Caspase-9 entry is reported as “*** (six fold or more)”. Also, in data set [1] (setting [4]), the GI50 was at most 100 nM. For the same molecule, the GI50 at 72 h in data set [2] and in data set [3] was over 10 µM throughout.

In the case of `CN[C@@H](C)C(=O)N[C@H](C(=O)N1CCC[C@H]1C(=O)Nc1cc2c(Nc3ccc(F)c(Cl)c3F)ncnc2cc1OC)C1CCCCC1.Cl` [Example 15, (S)—N-(4-(3-chloro-2,4-difluorophenylamino)-7-methoxyquinazolin-6-yl)-1-((S)-2-cyclohexyl-2-((S)-2-(methylamino)propanamido)acetyl)pyrrolidine-2-carboxamide hydrochloride], the Caspase-3 entry with caspase 3/7 is reported as “*** (six fold or more)”. Moreover, the Caspase-9 result in the data set on caspase 9 was “*** (six fold or more)”. The molecule also yielded a GI50 in data set [1] (setting [4]) of at most 100 nM. In addition, the GI50 at 72 h in data set [2] and in data set [3] was over 10 µM in each case.

Regarding `CN[C@@H](C)C(=O)N[C@H](C(=O)N1CCC[C@H]1C(=O)Nc1cc2c(Nc3ccc(F)c(F)c3F)ncnc2cc1OC)C(C)(C)C.Cl` [Example 17, (S)-1-((S)-3,3-dimethyl-2-((S)-2-(methylamino)propanamido)butanoyl)-N-(7-methoxy-4-(2,3,4-trifluorophenylamino)quinazolin-6-yl)pyrrolidine-2-carboxamide hydrochloride], the Caspase-3 entry in the data set on caspase 3/7 was “*** (six fold or more)”. In addition, the Caspase-9 result in the data set with caspase 9 was “*** (six fold or more)”. The molecule also returned a GI50 in data set [1] (setting [4]) of at most 100 nM. For the same molecule, the GI50 at 72 h in data set [2] and in data set [3] was over 10 µM in each case.

Consider `CN[C@@H](C)C(=O)N[C@H](C(=O)N1CCC[C@H]1C(=O)Nc1cc2c(NCc3ccccc3)ncnc2cc1OC)C(C)(C)C.Cl` [Example 18, (S)—N-(4-benzylamino-7-methoxyquinazolin-6-yl)-1-((S)-3,3-dimethyl-2-((S)-2-(methylamino)propanamido)butanoyl)pyrrolidine-2-carboxamide hydrochloride], for which the Caspase-3 result in the data set with caspase 3/7 is reported as “*** (six fold or more)”. Also, the Caspase-9 entry with caspase 9 is reported as “*** (six fold or more)”. Moreover, the GI50 in data set [1] (setting [4]) is at most 100 nM. For the same molecule, the GI50 at 72 h in data set [2] and in data set [3] was over 10 µM each time.

As for `CN[C@@H](C)C(=O)N[C@H](C(=O)N1CCC[C@H]1C(=O)Nc1cc2c(Nc3ccc(Oc4ccc(C)nc4)c(Cl)c3)ncnc2cc1OC)C(C)(C)C.Cl` [Example 19, (S)—N-(4-(3-chloro-4-(6-methylpyridin-3-yloxy)phenylamino)-7-methoxyquinazolin-6-yl)-1-((S)-3,3-dimethyl-2-((S)-2-(methylamino)propanamido)butanoyl)pyrrolidine-2-carboxamide hydrochloride], the Caspase-3 entry in the data set with caspase 3/7 was “*** (six fold or more)”. In addition, the Caspase-9 entry in the data set on caspase 9 is given as “*** (six fold or more)”. In data set [1] (setting [4]), this molecule yielded a GI50 of at most 100 nM. Also, the GI50 at 72 h in data set [2] and in data set [3] was over 10 µM throughout.

As for “(S)—N—((S)-1-((S)-2-(4-((4-bromo-2-fluorophenylamino)-6-methoxyquinazolinyl-7-oxy)methyl)piperidine)-1-carbonyl)-1-pyrrolidinyl)-3,3-dimethyloxobutan-2-yl)-2-(methylamino)propanamide hydrochloride [Example 44]”, the GI50 in data set [1] (120 hours) was at most 100 nM; in the data set with Balb/c3t3 fibroblasts it was over 10 µM; in the data set with Hs27 fibroblasts it was over 10 µM.

The record behind these values is patent publication US8835458B2 (Hanmi Science Co., Ltd, priority 2010, dated 2014).
